Legend:
stress ulcer = experiment: Stress ulcer inhibiting effect, water immersion method (Takagi and Okabe); assay type: in vivo; conditions: rats, 50 mg/kg, i.p.; **: P < 0.05
Excerpt: The stress ulcer inhibiting effect of the drug was investigated in rats in accordance with the water immersion method described by K. Takagi and S. Okabe, Jap. J. Pharmacol. 18, 9, 1968.

ICR mice = experiment: Acute oral toxicity, single administration, 7 days observation; assay type: in vivo; conditions: 500 mg/kg orally once

In the case of `O=C(O)C(O)c1ccc2c(c1)C(=O)C1(CC1)O2` (centres unmarked), the “% Inhibition (stress ulcer)” value (stress ulcer) was 56% and the “death during observation period” value (ICR mice) was “no death was found”.

Source: patent US4558068A, “Spirobenzofuranones and their use in treating peptic ulcers” (Takeda Chemical Industries, Ltd., priority 1983, dated 1985)
